According to PubChem BioAssay (NCI):
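Tested at 5 concentrations; 48 h exposure; 96-well plates; endpoints linearly interpolated, else capped at highest concentration. GI50 is the concentration that inhibits growth by half. TGI: total growth inhibition.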

Legend:
Experiment in all cases: NCI-60 cell line screen, 48 h
A549 NSCLC = test system: A549 NSCLC
DU-145 prostate = test system: DU-145 prostate
SK-MEL-28 melanoma = test system: SK-MEL-28 melanoma
A498 renal = test system: A498 renal
T-47D breast = test system: T-47D breast
KM20L2 colon = test system: KM20L2 colon
M19-MEL melanoma = test system: M19-MEL melanoma
DMS 114 small cell lung = test system: DMS 114 small cell lung
SNB-78 CNS = test system: SNB-78 CNS
DMS 273 small cell lung = test system: DMS 273 small cell lung
HOP-18 NSCLC = test system: HOP-18 NSCLC
DLD-1 colon = test system: DLD-1 colon
LXFL 529 NSCLC = test system: LXFL 529 NSCLC

| SMILES | TGI (A549 NSCLC) | TGI (DU-145 prostate) | TGI (SK-MEL-28 melanoma) | TGI (A498 renal) | TGI (T-47D breast) | other results |
| --- | --- | --- | --- | --- | --- | --- |
| COc1cc(Cn2c3c(c4c(CN(C)C)c(O)ccc42)C(=O)c2ccccc2C3=O)cc(OC)c1 | 35.1 µM | > 100 µM | 29.2 µM | 22.4 µM | > 100 µM |  |
| CCCCc1ccc(Nc2nc3c(ncn3C3OC(COC(C)=O)C(OC(C)=O)C3OC(C)=O)c(=O)[nH]2)cc1 (stereo not drawn) | > 100 µM | 90.6 µM |  | > 100 µM | 30 µM |  |
| CC(C)(C)OC(=O)N1C(C2=COc3ccccc3O2)=COc2ccccc21 | > 100 µM | 78.2 µM | 87.5 µM | 40.2 µM | 50.4 µM |  |
| CC(=O)OCC1C(C(C)OC(C)=O)CCC2C1CCC1(C)C(OC(C)=O)CCC21 (stereo not drawn) | 39.4 µM | > 100 µM | 29.1 µM | 41.4 µM | 65.7 µM |  |
| CCOC(=O)c1ccc(N=C2SC(=S)N(c3ccc(F)cc3)C2=Nc2ccc(C(=O)OCC)cc2)cc1 | > 84.9 µM | > 100 µM | 42.3 µM | > 100 µM | 22.7 µM |  |
| O=[N+]([O-])c1cc2n[nH]nc2c2nonc12 | > 100 µM | > 100 µM | > 100 µM |  | > 100 µM |  |
| C=C1CC(OC(C)=O)/C=C(/C)CCC(C(C)(C)O)CC1O (stereo not drawn) | > 100 µM | > 100 µM | > 100 µM | > 100 µM | > 100 µM |  |
| Oc1c(C(O)(c2ccccc2)c2ccc3ccccc3c2O)ccc2ccccc12 | 30.4 µM | 34.6 µM | 33.3 µM | 30.6 µM | 32.5 µM |  |
| COc1ccc2c(c1)/C(=C(\C(Cl)=C(Cl)Cl)[N+](=O)[O-])N2 | > 100 µM | > 100 µM | > 100 µM | > 100 µM | > 100 µM |  |
| Nc1[nH]c(=O)nc2sc3c(c12)CCCC3 | > 100 µM | > 100 µM | > 100 µM |  | > 100 µM |  |
| CCN(CC)CCNc1ccc([N+](=O)[O-])c2nc3ccccc3c(N)c12 | 2.39 µM | > 10 µM |  | 2.91 µM | > 10 µM |  |
| NS(=O)(=O)c1nnc(NC(=O)CCC(=O)O)s1 | > 100 µM | > 100 µM | > 100 µM | > 100 µM | > 100 µM |  |
| CC1=NN(c2nc(N)nc(CS(C)(=O)=O)n2)C(C)(C)C1 |  | > 100 µM | > 100 µM | > 100 µM | > 100 µM |  |
| O=C1CCc2c3c(c4c([nH]c5ccccc54)c2CC1)C(=O)NC3=O | > 100 µM | 42.9 µM | 12 µM | 13.5 µM | 6.01 µM |  |
| Cn1c(-c2ccccc2)cc(-c2ccc3c(c2)OCO3)c1-c1cccs1 | > 100 µM | > 100 µM | > 100 µM | > 100 µM | > 100 µM |  |
| COc1ccc2nc(-c3ccc(OC(=O)N(C)C)cc3)cn2c1 | > 100 µM |  | > 100 µM | > 100 µM | > 100 µM |  |

| SMILES | TGI (A549 NSCLC) | TGI (DU-145 prostate) | TGI (SK-MEL-28 melanoma) | TGI (A498 renal) | TGI (T-47D breast) | other results |
| --- | --- | --- | --- | --- | --- | --- |
| CSc1ccc2c(c1)c(CCN)c(C)n2Cc1ccc(Cl)c(Cl)c1 |  | 3.21 µM | 3.17 µM |  |  | GI50 (DU-145 prostate): 1.73 µM; GI50 (SK-MEL-28 melanoma): 1.67 µM |
| COC(=O)N1CC[C@@H]2CCC=C(c3cccc4c3OCO4)[C@@H]21 | > 100 µM | > 100 µM | > 100 µM | > 100 µM | > 100 µM |  |
| O=c1oc2ncccc2n1Cc1ccc([N+](=O)[O-])cc1 | > 100 µM | > 100 µM | > 100 µM | > 100 µM | > 100 µM |  |
| CCN(CC)CCN1c2ccccc2Sc2ccc3ccccc3c21 | 27.8 µM | 12.3 µM | 20.2 µM | 24.7 µM | 19.1 µM |  |
| O=C(O)CC(NC(=O)C(F)(F)F)C(=O)NC1Cc2ccccc2OC1=O (stereo not drawn) | > 100 µM | > 100 µM | > 100 µM |  |  |  |
| CN1CN(c2ccccc2)C2(CCNCC2)C1=O | > 100 µM | > 100 µM | > 100 µM | > 100 µM | > 100 µM |  |
| Cc1csc2c(P(=O)(OC(C)C)OC(C)C)c(-c3ccccc3)cn12 | 32.4 µM | 32.9 µM | 32.9 µM | 34.1 µM | 16.2 µM |  |
| CSCCC(NC(=O)C(Cc1ccccc1)NC(=O)CNC(=O)CNC(=O)C(N)Cc1ccc(O)cc1)C(=O)O (stereo not drawn) | > 100 µM |  | > 100 µM | > 100 µM |  | TGI (KM20L2 colon): > 29 µM; TGI (M19-MEL melanoma): > 100 µM; TGI (DMS 114 small cell lung): > 100 µM; TGI (SNB-78 CNS): > 100 µM; TGI (DMS 273 small cell lung): > 100 µM; TGI (HOP-18 NSCLC): > 100 µM |
| CC(=O)OC1C=CC2CCN3C(=O)c4cc5c(cc4[C@H]1C23)OCO5 (stereo partly drawn) | > 100 µM |  | > 100 µM |  |  | TGI (KM20L2 colon): > 100 µM; TGI (M19-MEL melanoma): > 100 µM; TGI (DMS 114 small cell lung): > 100 µM; TGI (SNB-78 CNS): > 100 µM; TGI (DMS 273 small cell lung): > 100 µM; TGI (DLD-1 colon): > 100 µM; TGI (LXFL 529 NSCLC): > 100 µM |
| CCOC(=O)C(SCCO)C(C(=O)OCC)n1ccc(N)nc1=O (stereo not drawn) | > 100 µM | > 100 µM | > 100 µM | > 100 µM | > 100 µM |  |
| COCCO | > 100 µM |  | > 100 µM | > 100 µM |  | TGI (KM20L2 colon): > 100 µM |
| COc1cc(N=C(N)N=C(N)N)c2ncccc2c1 | > 100 µM | > 100 µM | > 100 µM | > 100 µM | > 100 µM |  |
| COc1ccc(C2CCc3nc4nc(N)nc(N)c4cc3C2)cc1 (stereo not drawn) | > 100 µM | > 100 µM | 65 µM | 77.1 µM | 44.7 µM |  |
| Cc1c2c(c(C)c3c[n+](C)ccc13)Oc1ccccc1O2 | > 100 µM | > 100 µM | 28.6 µM | > 100 µM | 25.7 µM |  |
| O=C(N=Nc1ccc([N+](=O)[O-])cc1)NNc1ccc([N+](=O)[O-])cc1 | > 100 µM | 18.4 µM | 36.2 µM | 26.6 µM | 25.2 µM |  |
| COC(=O)C12CCC(C(=O)OC)(Cc3c(c4ccccc4n3S(=O)(=O)c3ccccc3)C1)C2=O (stereo not drawn) | > 100 µM | > 100 µM | > 100 µM | > 100 µM | > 100 µM |  |
